These results are taken from patent US4605651A, “Antibiotic amino acid derivatives of cephalosporins” (Kyoto Pharmaceutical Industries, Ltd., priority 1982, dated 1986).

On the set-up of series [1]: species or system humans. Particulars: human, in vivo, po, 480 min. The source says:
In humans, oral administration of the cephalosporin derivatives according to the present invention led to urinary recovery of the corresponding unesterified cephalosporins at the recovery rates shown below in the table. Method of administration: A 125-mg (on the unesterified form basis) capsule was orally administered. Assay: Microbial method using Bacillus subtilis

Series [2] is described as follows: Acute toxicity testing, oral, in mice. Particulars: mouse, in vivo, aqueous solution, male ICR mice 5 weeks of age, n=3. On the procedure: The results obtained in oral acute toxicity testing of the cephalosporin derivatives according to the present invention in mice are shown below.
Animals: Male mice (ICR, 5 weeks of age), n=3
Method of administration: The cephalosporin derivatives obtained in the above examples were dissolved in distilled water and the aqueous solutions were orally administered.

Counter-ions that a name gives are not always drawn.

With `CC(=O)OC(C)OC(=O)C1=C(CSc2nnc(C)s2)CSC2C(NC(=O)[C@H](OC(=O)[C@H](C)N)c3ccccc3)C(=O)N12` (stereo partly drawn) [Example 2, 1-acetoxyethyl 7-[D-O-(L-alanyl)mandelamido]-3-[(5-methyl-1,3,4-thiadiazol-2-yl)thiomethyl]-3-cephem-4-carboxylate hydrochloride], in series [1], the “Percent urinary recovery (Hour 0 to Hour 8)” value (“Percent urinary recovery” below) was 35.2%.

In turn, `Cc1nnc(SCC2=C(C(=O)OCc3oc(=O)oc3C)N3C(=O)C(NC(=O)[C@H](OC(=O)[C@H](C)N)c4ccccc4)C3SC2)s1` (stereo partly drawn) [Example 9, (5-Methyl-1,3-dioxolen-2-on-4-ylmethyl) 7-[D-O-(L-alanyl)mandelamido]-3-[(5-methyl-1,3,4-thiadiazol-2-yl)thiomethyl]-3-cephem-4-carboxylate hydrochloride] returned an LD50 in series [2] of 5000 mg/kg. The “Percent urinary recovery” value in series [1] came to 41.0%.

For the compound `CCOC(=O)OC(C)OC(=O)C1=C(CSc2nncs2)CSC2C(NC(=O)[C@H](OC(=O)[C@H](C)N)c3ccccc3)C(=O)N12` (stereo partly drawn) [Example 3, 1-ethoxycarbonyloxyethyl 7-[D-O-(L-alanyl)mandelamido]-3-[(1,3,4-thiadiazol-2-yl)thiomethyl]-3-cephem-4-carboxylate], in series [1], the “Percent urinary recovery” value is listed as 37.0%.

For `Cc1nnc(SCC2=C(C(=O)OCOC(=O)C(C)(C)C)N3C(=O)C(NC(=O)[C@H](OC(=O)[C@@H]4CCCN4)c4ccccc4)C3SC2)s1` (stereo partly drawn) [Example 7, Pivaloyloxymethyl 7-[D-O-(L-prolyl)mandelamido]-3-[(5-methyl-1,3,4-thiadiazol-2-yl)thiomethyl]-3-cephem-4-carboxylate hydrochloride], the LD50 in series [2] was determined as 5000 mg/kg. In addition, in series [1], the “Percent urinary recovery” value is 41.0%.

For `Cc1nnc(SCC2=C(C(=O)OCOC(=O)C(C)(C)C)N3C(=O)C(NC(=O)[C@H](OC(=O)[C@@H](N)C(C)C)c4ccccc4)C3SC2)s1` (stereo partly drawn) [Example 6, Pivaloyloxymethyl 7-[D-O-(L-valyl)mandelamido]-3-[(5-methyl-1,3,4-thiadiazol-2-yl)thiomethyl]-3-cephem-4-carboxylate hydrochloride], the “Percent urinary recovery” value in series [1] is reported as 36.0%.

In series [2], `CC(=O)OC(C)OC(=O)C1=C(CSc2nnc(C)s2)CSC2C(NC(=O)[C@H](OC(=O)[C@@H]3CCCN3)c3ccccc3)C(=O)N12` (stereo partly drawn) [Example 17, 1-Acetoxyethyl 7-[D-O-(L-prolyl)mandelamido]-3-[(5-methyl-1,3,4-thiadiazol-2-yl)thiomethyl]-3-cephem-4-carboxylate hydrochloride] displayed an LD50 of 5000 mg/kg. In series [1], the “Percent urinary recovery” value is given as 40.9%.

In series [2], `Cn1nnnc1SCC1=C(C(=O)OCOC(=O)C(C)(C)C)N2C(=O)C(NC(=O)[C@H](OC(=O)CN)c3ccccc3)C2SC1` (stereo partly drawn) [Example 1, pivaloyloxymethyl 7-[D-O-(glycyl)mandelamido]-3-[(1-methyl-1H-tetrazol-5-yl)thiomethyl]-3-cephem-4-carboxylate hydrochloride] registered an LD50 of 5000 mg/kg. Moreover, the “Percent urinary recovery” value in series [1] is given as 38.0%.
